Source: patent publication US20210392936A1, “Nutritional composition comprising urea and non-digestible oligosaccharides” (N.V. Nutricia, priority 2018, published 2021)

Columns and labels:
[1] = system: urease positive B. longum ssp. infantis strains M-63, ATCC17930, DN_163_0041 and R-0033; assay: Growth with urea concentrations or tryptone as nitrogen source, scGOS/IcFOS as carbon source (Example 3, second experiment), urease positive; type: cell-based, Bifidobacterium longum ssp. infantis; details: scGOS/IcFOS 20 g/l
Method: Fermenters were sterilized containing 80 ml demi water and 20 ml of a 20 wt % solution of scGOS/IcFOS in a 9:1 wt/wt ratio. As a source of scGOS VivinalGOS (DOMO, Friesland Campina) was used, and as a source of IcFOS, RaftilinHP was used (Orafti). After sterilization 100 ml of sterilized 2× concentrated BASE medium was added. The final concentration of scGOS/IcFOS was 2 wt % based on volume, and this served as the carbon source. As a nitrogen source tryptone was added (3.0 g/l), or 0, 10, 50 or 100 mM urea (final concentration), corresponding to 0, 0.6 g/l, 3 g/l and 6 g/l. Precultures were grown in static tubes in 1×BASE supplemented with 3.0 g/l tryptone and 2 wt % scGOS/IcFOS under an anaerobic gas atmosphere (90% N2, 5% Hz, 5% CO2).
(§1) Inoculation occurred from a single colonies grown on TOS-mupirocin agar plates as known in the art. The main cultures (in the fermenters) were performed with 1×BASE supplemented with 0, 15, 50 or 100 mM urea (if applicable). During fermentation the headspace was flushed with N2 gas or with an anaerobic gas mixture ((90% N2, 5% H2, 5% CO2). CO2 is known to be needed for the growth of most Bifidobacteria in the absence of substrates that can liberate CO2.
(§2) The main fermenters were inoculated with the preculture of B. breve at an OD600 of 0.05. For the B. longum subspecies infantis and bifidum mix the individual precultures were first mixed in an equal amount based on OD600 and subsequently also inoculated with a start OD600 of 0.05. The medium was stirred at 360 rpm by magnet stirring bar. The pH was controlled at 6.2 by addition of 5M NaOH. All growth (precultures, main fermenters, agar plates) experiments were performed at 37° C. Growth was monitored in time by off-line OD600 measurement. Samples were diluted before measurement where appropriate.
A second experiment was performed. Here the growth with different concentrations urea as nitrogen (and CO2) source was compared to Tryptone (from Oxoid) as nitrogen source. In this case only B. longum ssp. infantis strains M-63, ATCC17930, DN_163_0041 and R-0033 were used and tryptone was removed from the basal medium. Where applicable tryptone or urea were added as nitrogen source to final concentrations of 3 g/l and 10, 50 or 100 mM, respectively. Instead of lactose as carbon source scGOS/IcFOS in a 9:1 wt/wt ratio was used in a final concentration of 20 g/l. As a source of scGOS VivinalGOS (FrieslandCampina) was used, and RaftininHP (Orafti) was used as IcFOS source.

[2] = system: urease negative Bifidobacteria (Bifidobacterium breve DSM20213); assay: Growth with urea or tryptone as nitrogen source, scGOS/IcFOS as carbon source (Example 3, second experiment), urease negative; type: cell-based; details: CO2 gas, 50 mM urea, scGOS/IcFOS 20 g/l
[3] = system: B. longum spp infantis M-63, B. longum subspecies infantis ATCC 17930, B. longum ssp. infantis R-0033 (single strains); assay: Growth of single urease positive strains with urea and a carbon source without CO2 and other nitrogen source; type: cell-based, Bifidobacterium longum subspecies infantis; details: presence of urea and a carbon source, absence of CO2 and other nitrogen source; data not shown
Description: (§3) The following strains were used: Bifidobacterium breve DSM20213, which is the type strain of B. breve and urease negative. A mix of Bifidobacterium longum subspecies infantis strains was used that were predicted to be urease positive, to increase the chance of having a urease activity. […] Strains used were a mix of Bifidobacterium longum spp infantis DSM20088 (type strain), B. infantis M-63 (Morinaga), B. longum subspecies infantis ATCC 17930, B. longum subspecies infantis DN_163_0041 isolated from the faeces of a bottle-fed infants, B. infantis DN_163_0046 and B. longum ssp. infantis R-0033 (Lallemand) and Bifidobacterium bifidum ATCC29521 (type strain).

[4] = system: Bifidobacterium longum subspecies infantis ATCC 17930 (urease positive); assay: Growth of strain ATCC 17930 with or without urea, CO2 and 2'FL as carbon source (Example 4); type: cell-based; details: 10 mM urea
Method: In this experiment the urease positive strain Bifidobacterium longum subspecies infantis ATCC 17930, was used. The same growth media and experimental set up as in the second experiment described in example 3 was used, except that instead of scGOS/IcFOS, 2′-fucosyllactose (Jennewein Biotechnologie GmbH) was used as a carbon and energy source. As a nitrogen source tryptone was added (3.0 g/l), or no urea or 10 mM urea (final concentration), corresponding to 0, or 0.6 g/l urea.

[5] = system: urease positive Bifidobacteria (mix of Bifidobacterium longum subspecies infantis strains and Bifidobacterium bifidum ATCC29521); assay: Fermenter growth of urease positive Bifidobacteria mix with or without urea and CO2 (Example 3, first experiment); type: cell-based; details: urea N source (100 mM), lactose 20 g/l
Description: as §3
(§4) g/l yeast extract, 0.75 g/l tryptone, 3 g/l KH2PO4, 4.8 g/l K2HPO4, 0.2 g/l MgSO4, 0.5 g Cysteine.HCl, 15 g Sodium Propionate, supplemented with 10 ml vitamin mix and 10 ml metal mix from 100× concentrates (Teusink et al. 2005, AEM, Vol 71 (issue 11) p. 7253-7262) and 100 μM NiCl. The pH of this medium is 6.8 (+/−0.05). As carbon source 20 g/l lactose was used and when appropriate urea was added to a final concentration of 100 mM. The medium was sterilized using filtration step with a 0.22 μm filter. […] Precultures of bifidobacterium strains were grown statically in absence of urea at 37° C. in an anaerobic atmosphere (90% N2, 5% Hz, 5% CO2).
as §1, §2

[6] = system: Bifidobacterium breve DSM20213 (urease negative); assay: Fermenter growth of urease negative Bifidobacterium with or without urea and CO2 (Example 3, first experiment); type: cell-based; details: urea N source (100 mM), lactose 20 g/l
Description: as §3, §4, §1, §2

## NC(N)=O [urea]
[1]; CO2 gas, 50 mM urea, 15 min
  Growth expressed as OD600: 0.079 OD600
[1]; CO2 gas, 50 mM urea, 135 min
  Growth expressed as OD600: 0.161 OD600
[1]; CO2 gas, 50 mM urea, 270 min
  Growth expressed as OD600: 0.670 OD600
[1]; CO2 gas, 50 mM urea, 445 min
  Growth expressed as OD600: 2.610 OD600
[1]; CO2 gas, 50 mM urea, 625 min
  Growth expressed as OD600: 6.500 OD600
[1]; CO2 gas, 50 mM urea, 24 h
  Growth expressed as OD600: 6.5 OD600
[1]; N2 gas, 10 mM urea, 15 min
  Growth expressed as OD600: 0.084 OD600
[1]; N2 gas, 10 mM urea, 135 min
  Growth expressed as OD600: 0.137 OD600
[1]; N2 gas, 10 mM urea, 270 min
  Growth expressed as OD600: 0.390 OD600
[1]; N2 gas, 10 mM urea, 445 min
  Growth expressed as OD600: 1.280 OD600
[1]; N2 gas, 10 mM urea, 625 min
  Growth expressed as OD600: 3.900 OD600
[1]; N2 gas, 10 mM urea, 24 h
  Growth expressed as OD600: 3.720 OD600
[1]; N2 gas, 50 mM urea, 15 min
  Growth expressed as OD600: 0.082 OD600
[1]; N2 gas, 50 mM urea, 135 min
  Growth expressed as OD600: 0.140 OD600
[1]; N2 gas, 50 mM urea, 270 min
  Growth expressed as OD600: 0.450 OD600
[1]; N2 gas, 50 mM urea, 445 min
  Growth expressed as OD600: 1.260 OD600
[1]; N2 gas, 50 mM urea, 625 min
  Growth expressed as OD600: 2.970 OD600
[1]; N2 gas, 50 mM urea, 24 h
  Growth expressed as OD600: 2.850 OD600
[1]; N2 gas, 100 mM urea, 15 min
  Growth expressed as OD600: 0.079 OD600
[1]; N2 gas, 100 mM urea, 135 min
  Growth expressed as OD600: 0.144 OD600
[1]; N2 gas, 100 mM urea, 270 min
  Growth expressed as OD600: 0.430 OD600
[1]; N2 gas, 100 mM urea, 445 min
  Growth expressed as OD600: 1.130 OD600
[1]; N2 gas, 100 mM urea, 625 min
  Growth expressed as OD600: 2.800 OD600
[1]; N2 gas, 100 mM urea, 24 h
  Growth expressed as OD600: 2.520 OD600
[2]; 15 min
  Growth expressed as OD600: 0.074 OD600
[2]; 135 min
  Growth expressed as OD600: 0.125 OD600
[2]; 270 min
  Growth expressed as OD600: 0.280 OD600
[2]; 445 min
  Growth expressed as OD600: 0.460 OD600
[2]; 625 min
  Growth expressed as OD600: 0.590 OD600
[2]; 24 h
  Growth expressed as OD600: 1.020 OD600
[3]
  Growth of single strains: able to grow very well
[4]; CO2 gas, with 2'FL C source (+), 30 min
  Growth expressed as OD600: 0.072 OD600
[4]; CO2 gas, with 2'FL C source (+), 240 min
  Growth expressed as OD600: 0.298 OD600
[4]; CO2 gas, with 2'FL C source (+), 360 min
  Growth expressed as OD600: 0.880 OD600
[4]; CO2 gas, with 2'FL C source (+), 540 min
  Growth expressed as OD600: 2.070 OD600
[4]; CO2 gas, with 2'FL C source (+), 24 h
  Growth expressed as OD600: 3.060 OD600
[4]; CO2 gas, without 2'FL C source (−), 30 min
  Growth expressed as OD600: 0.071 OD600
[4]; CO2 gas, without 2'FL C source (−), 240 min
  Growth expressed as OD600: 0.203 OD600
[4]; CO2 gas, without 2'FL C source (−), 360 min
  Growth expressed as OD600: 0.191 OD600
[4]; CO2 gas, without 2'FL C source (−), 540 min
  Growth expressed as OD600: 0.191 OD600
[4]; CO2 gas, without 2'FL C source (−), 24 h
  Growth expressed as OD600: 0.187 OD600
[4]; N2 gas, with 2'FL C source (+), 30 min
  Growth expressed as OD600: 0.079 OD600
[4]; N2 gas, with 2'FL C source (+), 240 min
  Growth expressed as OD600: 0.154 OD600
[4]; N2 gas, with 2'FL C source (+), 360 min
  Growth expressed as OD600: 0.350 OD600
[4]; N2 gas, with 2'FL C source (+), 540 min
  Growth expressed as OD600: 0.600 OD600
[4]; N2 gas, with 2'FL C source (+), 24 h
  Growth expressed as OD600: 1.320 OD600
[4]; N2 gas, without 2'FL C source (−), 30 min
  Growth expressed as OD600: 0.068 OD600
[4]; N2 gas, without 2'FL C source (−), 240 min
  Growth expressed as OD600: 0.175 OD600
[4]; N2 gas, without 2'FL C source (−), 360 min
  Growth expressed as OD600: 0.179 OD600
[4]; N2 gas, without 2'FL C source (−), 540 min
  Growth expressed as OD600: 0.163 OD600
[4]; N2 gas, without 2'FL C source (−), 24 h
  Growth expressed as OD600: 0.157 OD600
[5]; CO2 gas, 60 min
  Growth expressed as OD600: 0.099 OD600
[5]; CO2 gas, 180 min
  Growth expressed as OD600: 0.168 OD600
[5]; CO2 gas, 360 min
  Growth expressed as OD600: 0.680 OD600
[5]; CO2 gas, 660 min
  Growth expressed as OD600: 3.940 OD600
[5]; CO2 gas, 23 h
  Growth expressed as OD600: 3.850 OD600
[5]; N2 gas, 60 min
  Growth expressed as OD600: 0.095 OD600
[5]; N2 gas, 180 min
  Growth expressed as OD600: 0.161 OD600
[5]; N2 gas, 360 min
  Growth expressed as OD600: 0.560 OD600
[5]; N2 gas, 660 min
  Growth expressed as OD600: 3.930 OD600
[5]; N2 gas, 23 h
  Growth expressed as OD600: 3.700 OD600
[6]; CO2 gas, 60 min
  Growth expressed as OD600: 0.062 OD600
[6]; CO2 gas, 180 min
  Growth expressed as OD600: 0.083 OD600
[6]; CO2 gas, 360 min
  Growth expressed as OD600: 0.211 OD600
[6]; CO2 gas, 660 min
  Growth expressed as OD600: 1.560 OD600
[6]; CO2 gas, 23 h
  Growth expressed as OD600: 2.250 OD600
[6]; N2 gas, 60 min
  Growth expressed as OD600: 0.051 OD600
[6]; N2 gas, 180 min
  Growth expressed as OD600: 0.061 OD600
[6]; N2 gas, 360 min
  Growth expressed as OD600: 0.072 OD600
[6]; N2 gas, 660 min
  Growth expressed as OD600: 0.054 OD600
[6]; N2 gas, 23 h
  Growth expressed as OD600: 0.046 OD600
